Results published in ChEMBL document CHEMBL3885861, “Open TG-GATES”.

Species: Rattus norvegicus
Experiment: Open TG-GATES - Regimen: Single
Type: toxicity, organism-based, Sprague-Dawley
Set-up: regimen Single, gender Male, age 6 weeks
Details: in vivo, po, route gavage; for gamma-GTP / ALP / ALT / AST / BUN / CRE / Ca / Cl / DBIL / GLC / IP / K / LDH / Na / PL / RALB / TBIL / TC / TG / TP: tissue Plasma; for APTT / Bas / Eos / Fbg / Hb / Ht / Lym / MCH / MCHC / MCV / Mono / Neu / PT / Plat / RBC / Ret: tissue Blood; for KIDNEY_L / KIDNEY_R / KIDNEY_TOTAL: tissue Kidney; for LIVER: tissue Liver
[1] = 100 mg/kg, 24 h, dose level Low

`COc1ccc2[nH]c([S+]([O-])Cc3ncc(C)c(OC)c3C)nc2c1` (centres undefined) [OMEPRAZOLE] gave a gamma-GTP (0 mg/kg, 24 h, dose level Control) of 1.4 IU/L, a TERMINAL_BW (100 mg/kg, 3 h, dose level Low) of 221.4 g and an APTT (100 mg/kg, 3 h, dose level Low) of 18.4 s. For the same compound, the Bas (100 mg/kg, 3 h, dose level Low) was 0%, the Eos (100 mg/kg, 3 h, dose level Low) was 1.2% and the Fbg (100 mg/kg, 3 h, dose level Low) was 209.8 mg/dL. It also gave a Hb (100 mg/kg, 3 h, dose level Low) of 12.8 g/dL, a Ht (100 mg/kg, 3 h, dose level Low) of 37.6% and a Lym (100 mg/kg, 3 h, dose level Low) of 77.2%. The MCH (100 mg/kg, 3 h, dose level Low) was 21.2 pg, the MCHC (100 mg/kg, 3 h, dose level Low) was 34.1% and the MCV (100 mg/kg, 3 h, dose level Low) was 62.2 fL. It also gave a Mono (100 mg/kg, 3 h, dose level Low) of 3.4%, a Neu (100 mg/kg, 3 h, dose level Low) of 18% and a PT (100 mg/kg, 3 h, dose level Low) of 12.6 s. The Plat (100 mg/kg, 3 h, dose level Low) was 122.2 x10_4/uL, the RBC (100 mg/kg, 3 h, dose level Low) was 603.6 x10_4/ul and the Ret (100 mg/kg, 3 h, dose level Low) was 6.9%. The KIDNEY_L (100 mg/kg, 3 h, dose level Low) was 1 g, the KIDNEY_R (100 mg/kg, 3 h, dose level Low) was 1 g and the KIDNEY_TOTAL (100 mg/kg, 3 h, dose level Low) was 2 g. It also gave an LIVER (100 mg/kg, 3 h, dose level Low) of 10.2 g, an ALP (100 mg/kg, 3 h, dose level Low) of 983 IU/L and an ALT (100 mg/kg, 3 h, dose level Low) of 33.8 IU/L. It also gave an AST (100 mg/kg, 3 h, dose level Low) of 73.6 IU/L, a BUN (100 mg/kg, 3 h, dose level Low) of 11.6 mg/dL and a CRE (100 mg/kg, 3 h, dose level Low) of 0.4 mg/dL. The Ca (100 mg/kg, 3 h, dose level Low) was 10.6 mg/dL, the Cl (100 mg/kg, 3 h, dose level Low) was 100.6 meq/L and the DBIL (100 mg/kg, 3 h, dose level Low) was 0.078 mg/dL. For the same compound, the GLC (100 mg/kg, 3 h, dose level Low) was 201.4 mg/dL, the IP (100 mg/kg, 3 h, dose level Low) was 9.1 mg/dL and the K (100 mg/kg, 3 h, dose level Low) was 4 meq/L. For the same compound, the LDH (100 mg/kg, 3 h, dose level Low) was 180.6 IU/L, the Na (100 mg/kg, 3 h, dose level Low) was 140.2 meq/L and the PL (100 mg/kg, 3 h, dose level Low) was 144.8 mg/dL. It also gave an RALB (100 mg/kg, 3 h, dose level Low) of 3.3 g/dL, a TBIL (100 mg/kg, 3 h, dose level Low) of 0.1 mg/dL and a TC (100 mg/kg, 3 h, dose level Low) of 74.2 mg/dL. For the same compound, the TG (100 mg/kg, 3 h, dose level Low) was 86.6 mg/dL, the TP (100 mg/kg, 3 h, dose level Low) was 5.4 g/dL and the gamma-GTP (100 mg/kg, 3 h, dose level Low) was 0.8 IU/L. For the same compound, the TERMINAL_BW (100 mg/kg, 6 h, dose level Low) was 217.8 g, the APTT (100 mg/kg, 6 h, dose level Low) was 19.2 s and the Bas (100 mg/kg, 6 h, dose level Low) was 0%. It also gave an Eos (100 mg/kg, 6 h, dose level Low) of 1%, a Fbg (100 mg/kg, 6 h, dose level Low) of 217 mg/dL and a Hb (100 mg/kg, 6 h, dose level Low) of 13.2 g/dL. It also gave a Ht (100 mg/kg, 6 h, dose level Low) of 38.6%, a Lym (100 mg/kg, 6 h, dose level Low) of 76% and an MCH (100 mg/kg, 6 h, dose level Low) of 21.1 pg. It also gave an MCHC (100 mg/kg, 6 h, dose level Low) of 34.2%, an MCV (100 mg/kg, 6 h, dose level Low) of 61.7 fL and a Mono (100 mg/kg, 6 h, dose level Low) of 4%. It also gave a Neu (100 mg/kg, 6 h, dose level Low) of 18.8%, a PT (100 mg/kg, 6 h, dose level Low) of 12.9 s and a Plat (100 mg/kg, 6 h, dose level Low) of 114.2 x10_4/uL. The RBC (100 mg/kg, 6 h, dose level Low) was 626.4 x10_4/ul, the Ret (100 mg/kg, 6 h, dose level Low) was 6.5% and the KIDNEY_L (100 mg/kg, 6 h, dose level Low) was 1 g. For the same compound, the KIDNEY_R (100 mg/kg, 6 h, dose level Low) was 1 g, the KIDNEY_TOTAL (100 mg/kg, 6 h, dose level Low) was 2 g and the LIVER (100 mg/kg, 6 h, dose level Low) was 10.1 g. The ALP (100 mg/kg, 6 h, dose level Low) was 849 IU/L, the ALT (100 mg/kg, 6 h, dose level Low) was 32 IU/L and the AST (100 mg/kg, 6 h, dose level Low) was 65 IU/L. For the same compound, the BUN (100 mg/kg, 6 h, dose level Low) was 9.4 mg/dL, the CRE (100 mg/kg, 6 h, dose level Low) was 0.4 mg/dL and the Ca (100 mg/kg, 6 h, dose level Low) was 10.6 mg/dL. For the same compound, the Cl (100 mg/kg, 6 h, dose level Low) was 102.4 meq/L, the DBIL (100 mg/kg, 6 h, dose level Low) was 0.074 mg/dL and the GLC (100 mg/kg, 6 h, dose level Low) was 197.8 mg/dL. The IP (100 mg/kg, 6 h, dose level Low) was 9.4 mg/dL, the K (100 mg/kg, 6 h, dose level Low) was 4 meq/L and the LDH (100 mg/kg, 6 h, dose level Low) was 219.6 IU/L. For the same compound, the Na (100 mg/kg, 6 h, dose level Low) was 141 meq/L, the PL (100 mg/kg, 6 h, dose level Low) was 159.6 mg/dL and the RALB (100 mg/kg, 6 h, dose level Low) was 3.3 g/dL. It also gave a TBIL (100 mg/kg, 6 h, dose level Low) of 0.1 mg/dL, a TC (100 mg/kg, 6 h, dose level Low) of 86.2 mg/dL and a TG (100 mg/kg, 6 h, dose level Low) of 83.4 mg/dL. It also gave a TP (100 mg/kg, 6 h, dose level Low) of 5.4 g/dL, a gamma-GTP (100 mg/kg, 6 h, dose level Low) of 1 IU/L and a TERMINAL_BW (100 mg/kg, 9 h, dose level Low) of 217.8 g. It also gave an APTT (100 mg/kg, 9 h, dose level Low) of 20.7 s, a Bas (100 mg/kg, 9 h, dose level Low) of 0% and an Eos (100 mg/kg, 9 h, dose level Low) of 0.8%. For the same compound, the Fbg (100 mg/kg, 9 h, dose level Low) was 217.6 mg/dL, the Hb (100 mg/kg, 9 h, dose level Low) was 12.9 g/dL and the Ht (100 mg/kg, 9 h, dose level Low) was 37.5%. The Lym (100 mg/kg, 9 h, dose level Low) was 76.8%, the MCH (100 mg/kg, 9 h, dose level Low) was 20.9 pg and the MCHC (100 mg/kg, 9 h, dose level Low) was 34.5%. For the same compound, the MCV (100 mg/kg, 9 h, dose level Low) was 60.6 fL, the Mono (100 mg/kg, 9 h, dose level Low) was 3.4% and the Neu (100 mg/kg, 9 h, dose level Low) was 18.4%. It also gave a PT (100 mg/kg, 9 h, dose level Low) of 12.8 s, a Plat (100 mg/kg, 9 h, dose level Low) of 130.5 x10_4/uL and an RBC (100 mg/kg, 9 h, dose level Low) of 620.2 x10_4/ul. For the same compound, the Ret (100 mg/kg, 9 h, dose level Low) was 6.8%, the KIDNEY_L (100 mg/kg, 9 h, dose level Low) was 1 g and the KIDNEY_R (100 mg/kg, 9 h, dose level Low) was 1 g. It also gave a KIDNEY_TOTAL (100 mg/kg, 9 h, dose level Low) of 2.1 g, an LIVER (100 mg/kg, 9 h, dose level Low) of 9.7 g and an ALP (100 mg/kg, 9 h, dose level Low) of 826.2 IU/L. For the same compound, the ALT (100 mg/kg, 9 h, dose level Low) was 28.8 IU/L, the AST (100 mg/kg, 9 h, dose level Low) was 56.8 IU/L and the BUN (100 mg/kg, 9 h, dose level Low) was 9 mg/dL. The CRE (100 mg/kg, 9 h, dose level Low) was 0.3 mg/dL, the Ca (100 mg/kg, 9 h, dose level Low) was 10.3 mg/dL and the Cl (100 mg/kg, 9 h, dose level Low) was 101 meq/L. It also gave a DBIL (100 mg/kg, 9 h, dose level Low) of 0.066 mg/dL, a GLC (100 mg/kg, 9 h, dose level Low) of 197.4 mg/dL and an IP (100 mg/kg, 9 h, dose level Low) of 10.1 mg/dL. The K (100 mg/kg, 9 h, dose level Low) was 4 meq/L, the LDH (100 mg/kg, 9 h, dose level Low) was 171.6 IU/L and the Na (100 mg/kg, 9 h, dose level Low) was 140 meq/L. For the same compound, the PL (100 mg/kg, 9 h, dose level Low) was 135.8 mg/dL, the RALB (100 mg/kg, 9 h, dose level Low) was 3.3 g/dL and the TBIL (100 mg/kg, 9 h, dose level Low) was 0.1 mg/dL. The TC (100 mg/kg, 9 h, dose level Low) was 71.2 mg/dL, the TG (100 mg/kg, 9 h, dose level Low) was 68.6 mg/dL and the TP (100 mg/kg, 9 h, dose level Low) was 5.4 g/dL. It also gave a gamma-GTP (100 mg/kg, 9 h, dose level Low) of 1 IU/L, a TERMINAL_BW [1] of 234.1 g and an APTT [1] of 19.3 s. For the same compound, the Bas [1] was 0%, the Eos [1] was 1% and the Fbg [1] was 216.2 mg/dL. For the same compound, the Hb [1] was 12.8 g/dL, the Ht [1] was 37.6% and the Lym [1] was 84.4%. For the same compound, the MCH [1] was 21.2 pg, the MCHC [1] was 34% and the MCV [1] was 62.2 fL. For the same compound, the Mono [1] was 2.4%, the Neu [1] was 12% and the PT [1] was 12.6 s. For the same compound, the Plat [1] was 130.1 x10_4/uL, the RBC [1] was 604.8 x10_4/ul and the Ret [1] was 6.9%. For the same compound, the KIDNEY_L [1] was 1 g, the KIDNEY_R [1] was 1.1 g and the KIDNEY_TOTAL [1] was 2.1 g. The LIVER [1] was 11.2 g, the ALP [1] was 851.2 IU/L and the ALT [1] was 28.4 IU/L. It also gave an AST [1] of 57.8 IU/L, a BUN [1] of 15.8 mg/dL and a CRE [1] of 0.4 mg/dL. The Ca [1] was 10.6 mg/dL, the Cl [1] was 101 meq/L and the DBIL [1] was 0.092 mg/dL. It also gave a GLC [1] of 209.4 mg/dL, an IP [1] of 9.3 mg/dL and a K [1] of 4.4 meq/L. For the same compound, the LDH [1] was 195.8 IU/L, the Na [1] was 140.2 meq/L and the PL [1] was 145.4 mg/dL. The RALB [1] was 3.2 g/dL, the TBIL [1] was 0.1 mg/dL and the TC [1] was 77.8 mg/dL. The TG [1] was 89.8 mg/dL and the TP [1] was 5.3 g/dL.
